Laboratory results as given in ChEMBL document CHEMBL5728279, “Toll-like receptor 7 (TLR7) agonists having a pyridine or pyrazine moiety, conjugates thereof, and methods and uses therefor” (2021).

Target: T1, Toll-like receptor 7 (Homo sapiens, UniProt Q9NYK1)
T1 sequence (Q9NYK1 whole entry): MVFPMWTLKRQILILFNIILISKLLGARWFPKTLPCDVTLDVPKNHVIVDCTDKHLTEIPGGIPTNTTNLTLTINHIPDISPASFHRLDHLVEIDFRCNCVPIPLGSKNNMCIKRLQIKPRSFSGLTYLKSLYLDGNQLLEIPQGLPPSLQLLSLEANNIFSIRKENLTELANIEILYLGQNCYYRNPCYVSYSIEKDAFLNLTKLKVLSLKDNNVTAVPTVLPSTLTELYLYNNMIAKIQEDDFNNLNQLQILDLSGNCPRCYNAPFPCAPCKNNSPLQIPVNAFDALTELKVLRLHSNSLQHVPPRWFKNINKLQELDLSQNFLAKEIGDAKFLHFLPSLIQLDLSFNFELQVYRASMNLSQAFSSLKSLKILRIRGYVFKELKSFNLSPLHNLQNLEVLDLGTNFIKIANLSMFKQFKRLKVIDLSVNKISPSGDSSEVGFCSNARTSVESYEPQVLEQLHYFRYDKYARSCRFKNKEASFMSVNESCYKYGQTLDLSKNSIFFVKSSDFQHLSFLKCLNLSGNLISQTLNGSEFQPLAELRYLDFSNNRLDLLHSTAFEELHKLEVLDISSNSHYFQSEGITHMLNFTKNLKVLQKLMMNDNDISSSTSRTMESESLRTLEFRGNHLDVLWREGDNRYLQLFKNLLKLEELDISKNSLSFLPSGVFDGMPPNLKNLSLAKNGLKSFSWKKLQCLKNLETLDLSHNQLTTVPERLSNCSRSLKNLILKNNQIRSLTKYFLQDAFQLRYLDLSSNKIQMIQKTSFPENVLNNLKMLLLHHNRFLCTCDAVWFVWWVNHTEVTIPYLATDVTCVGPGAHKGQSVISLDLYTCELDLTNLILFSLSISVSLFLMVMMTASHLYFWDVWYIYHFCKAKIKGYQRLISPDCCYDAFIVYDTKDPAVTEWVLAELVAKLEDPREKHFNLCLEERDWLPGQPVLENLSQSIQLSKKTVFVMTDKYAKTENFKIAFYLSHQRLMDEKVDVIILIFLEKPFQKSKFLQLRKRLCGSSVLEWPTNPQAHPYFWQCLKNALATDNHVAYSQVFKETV
Test: HEK-Blue™ TLR7 cells were added to each well of a 384-well tissue-culture plate (15,000 cells per well) and incubated 16-18 h at 37° C., 5% CO2. Compounds (100 nl) were dispensed into wells containing the HEK-Blue™ TLR cells and the treated cells were incubated at 37° C., 5% CO2. After 18 h treatment ten microliters of freshly-prepared Quanti-Blue™ reagent (Invivogen) was added to each well, incubated for 30 min (37° C., 5% CO2) and SEAP levels measured using an Envision plate reader (OD=620 nm).

Row | EC50 | Structure (SMILES)
1 | 2.9 nM | CCCCOc1nc(N)c2nc(O)n(Cc3ccc(CNC4CCCC4)nc3)c2n1
2 | 4.9 nM | CCCCOc1nc(N)c2nc(O)n(Cc3ccc(CN4CCC(CN)CC4)nc3)c2n1
3 | 22 nM | CCCCOc1nc(N)c2nc(O)n(Cc3ccc(CNCc4ccccc4)cn3)c2n1
4 | 3.1 nM | CCCCOc1nc(N)c2nc(O)n(Cc3ccc(CN4CCC(N)CC4)nc3)c2n1
5 | 110 nM | CCCCOc1nc(N)c2nc(O)n(Cc3ccc(CNCc4ccccc4)nc3)c2n1
6 | 11 nM | CCCCCCNCc1ccc(Cn2c(O)nc3c(N)nc(OCCCC)nc32)cn1
